Usually EC50 stands for the concentration that produces a half-maximal response. Usually IC50 stands for the concentration needed to halve the response being measured. In general, inhibition refers to the relative decrease from the control value, in per cent.

The record followed here is ChEMBL document CHEMBL2346515, “Discovery of 4-alkylamino-7-aryl-3-cyanoquinoline LRRK2 kinase inhibitors” (Bioorg Med Chem Lett, 2013).

Data set [1] relates to MDCK. Description: Permeability in MDCK cells expressing MDR1. To be noted: dog. Type of data set: ADME, cell-based, Canis lupus familiaris.
The test system of data set [2] is Brain. Description: Drug uptake in brain of MDR1 a/b(-/-) and P-gp competant wild-type FVB mouse at 1 mg/kg, iv after 5 mins. The class given is ADME, organism-based. Also noted: dose 1 mg/kg, route intravenous. To be noted: in vivo.
Data set [3] has as its target T1, Leucine-rich repeat serine/threonine-protein kinase 2 (Homo sapiens, UniProt Q5S007, G2019S). As to the kind of experiment: Inhibition of LRRK2 G2019S mutant (unknown origin) Ser935 phosphorylation expressed in HEK293 cells by cell-based assay.
The target of data set [4] is T1, Leucine-rich repeat serine/threonine-protein kinase 2. As to the kind of experiment: Inhibition of GST-tagged LRRK2 G2019S mutant (970-2527 amino acids) (unknown origin) assessed as inhibition of LRRKtide phosphorylation by HTRF assay. Background: In TR-FRET formats the signal depends on donor and acceptor labels being close together.
Data set [5] has as its target T2, Leucine-rich repeat serine/threonine-protein kinase 2 (Homo sapiens, UniProt Q5S007). Description: Inhibition of wild type GST-tagged LRRK2 (970-2527 amino acids)(unknown origin) assessed as inhibition of LRRKtide phosphorylation by HTRF assay.
Data set [6] deals with T3, Dual specificity protein kinase TTK (Homo sapiens) (UniProt P33981).
T3 sequence (whole entry): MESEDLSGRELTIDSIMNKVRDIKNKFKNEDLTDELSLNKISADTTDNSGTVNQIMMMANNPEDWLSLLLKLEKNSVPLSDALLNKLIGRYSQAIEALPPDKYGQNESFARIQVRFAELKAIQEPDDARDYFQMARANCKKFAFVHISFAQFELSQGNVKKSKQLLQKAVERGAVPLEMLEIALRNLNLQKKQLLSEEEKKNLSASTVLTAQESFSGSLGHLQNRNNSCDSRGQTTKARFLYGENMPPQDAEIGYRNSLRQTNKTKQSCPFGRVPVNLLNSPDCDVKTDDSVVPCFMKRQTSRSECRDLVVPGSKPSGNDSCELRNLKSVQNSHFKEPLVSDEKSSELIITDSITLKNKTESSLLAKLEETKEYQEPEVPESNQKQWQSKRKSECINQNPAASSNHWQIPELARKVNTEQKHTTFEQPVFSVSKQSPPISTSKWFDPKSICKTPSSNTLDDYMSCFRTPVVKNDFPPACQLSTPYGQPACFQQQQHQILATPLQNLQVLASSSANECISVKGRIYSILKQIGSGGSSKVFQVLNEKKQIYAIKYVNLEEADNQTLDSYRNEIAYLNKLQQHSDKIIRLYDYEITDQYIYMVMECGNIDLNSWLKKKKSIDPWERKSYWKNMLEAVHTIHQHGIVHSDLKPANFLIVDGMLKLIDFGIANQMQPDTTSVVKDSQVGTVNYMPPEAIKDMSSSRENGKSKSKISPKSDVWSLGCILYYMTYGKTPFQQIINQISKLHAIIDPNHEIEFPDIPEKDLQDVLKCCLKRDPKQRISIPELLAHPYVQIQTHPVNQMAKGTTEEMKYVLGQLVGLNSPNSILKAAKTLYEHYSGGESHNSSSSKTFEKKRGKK
As to the kind of experiment: Inhibition of TTK (unknown origin) at 1 uM by single point assay.

Data set [7] has as its target T4, Serine/threonine-protein kinase 3 (Homo sapiens) (UniProt Q13188).
T4 sequence (whole entry): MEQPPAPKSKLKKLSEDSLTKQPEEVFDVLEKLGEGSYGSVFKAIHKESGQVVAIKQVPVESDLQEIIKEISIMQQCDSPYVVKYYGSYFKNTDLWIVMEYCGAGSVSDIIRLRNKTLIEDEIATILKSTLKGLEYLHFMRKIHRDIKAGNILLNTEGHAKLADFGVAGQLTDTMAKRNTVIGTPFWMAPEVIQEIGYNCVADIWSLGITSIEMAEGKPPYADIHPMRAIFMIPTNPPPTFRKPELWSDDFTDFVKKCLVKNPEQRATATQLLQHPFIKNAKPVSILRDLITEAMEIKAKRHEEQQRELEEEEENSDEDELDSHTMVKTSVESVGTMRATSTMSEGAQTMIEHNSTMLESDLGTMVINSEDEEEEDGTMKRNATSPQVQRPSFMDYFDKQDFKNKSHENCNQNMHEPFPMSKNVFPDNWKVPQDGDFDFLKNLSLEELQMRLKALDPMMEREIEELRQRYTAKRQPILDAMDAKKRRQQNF
Description: Inhibition of STK3 (unknown origin) at 1 uM by single point assay.

The target of data set [8] is RAF proto-oncogene serine/threonine-protein kinase (Homo sapiens) (UniProt P04049). As to the kind of experiment: Inhibition of RAF1 (unknown origin) at 1 uM by single point assay.
Data set [9] deals with Proto-oncogene tyrosine-protein kinase receptor Ret (Homo sapiens) (UniProt P07949). Description: Inhibition of RET (unknown origin) at 1 uM by single point assay.
Data set [10] concerns the target Protein-tyrosine kinase 2-beta (Homo sapiens) (UniProt Q14289). As to the kind of experiment: Inhibition of PTK2B (unknown origin) at 1 uM by single point assay.
For data set [11], the target named is cAMP-dependent protein kinase catalytic subunit alpha (Homo sapiens) (UniProt P17612). Description: Inhibition of PRKACA (unknown origin) at 1 uM by single point assay.
The target in data set [12] is Serine/threonine-protein kinase PLK3 (Homo sapiens) (UniProt Q9H4B4). Description: Inhibition of PLK3 (unknown origin) at 1 uM by single point assay.
The target of data set [13] is PI3-kinase p110-alpha/p85-alpha (Homo sapiens) (UniProt P27986+P42336). As to the kind of experiment: Inhibition of PIK3CA/PIK3R1 (unknown origin) at 1 uM by single point assay. Type of data set: protein-complex assay.
Data set [14] addresses Serine/threonine-protein kinase PAK 4 (Homo sapiens) (UniProt O96013). As to the kind of experiment: Inhibition of PAK4 (unknown origin) at 1 uM by single point assay.
Data set [15] has as its target Platelet-derived growth factor receptor alpha (Homo sapiens) (UniProt P16234). As to the kind of experiment: Inhibition of PDGFRalpha (unknown origin) at 1 uM by single point assay.
The target in data set [16] is T2, Leucine-rich repeat serine/threonine-protein kinase 2. Description: Inhibition of LRRK2 (unknown origin) at 1 uM by single point assay.
Data set [17] concerns the target Glycogen synthase kinase-3 beta (Homo sapiens) (UniProt P49841). Description: Inhibition of GSK3beta (unknown origin) at 1 uM by single point assay.
Data set [18] addresses Receptor tyrosine-protein kinase erbB-4 (Homo sapiens) (UniProt Q15303). Description: Inhibition of ErbB4 (unknown origin) at 1 uM by single point assay.
The target of data set [19] is Macrophage colony-stimulating factor 1 receptor (Homo sapiens) (UniProt P07333). Description: Inhibition of CSF1R (unknown origin) at 1 uM by single point assay.
Data set [20] deals with Cyclin-dependent kinase 5/CDK5 activator 1 (Homo sapiens) (UniProt Q00535+Q15078). As to the kind of experiment: Inhibition of CDK5/p25 (unknown origin) at 1 uM by single point assay. The class given is protein-complex assay.
In data set [21] the target is Cyclin-dependent kinase 1/cyclin B1 (Homo sapiens) (UniProt P06493+P14635). As to the kind of experiment: Inhibition of CDK1/cyclin B (unknown origin) at 1 uM by single point assay. The class given is protein-complex assay.
Data set [22] has as its target RAC-alpha serine/threonine-protein kinase (Homo sapiens) (UniProt P31749). As to the kind of experiment: Inhibition of AKT1 (unknown origin) at 1 uM by single point assay.
Data set [23] has as its target Calcium/calmodulin-dependent protein kinase type II subunit alpha (Homo sapiens) (UniProt Q9UQM7). As to the kind of experiment: Inhibition of CAMK2alpha (unknown origin) at 1 uM by single point assay.

T1 sequence (Q5S007 whole entry G2019S, the tested form may be a part): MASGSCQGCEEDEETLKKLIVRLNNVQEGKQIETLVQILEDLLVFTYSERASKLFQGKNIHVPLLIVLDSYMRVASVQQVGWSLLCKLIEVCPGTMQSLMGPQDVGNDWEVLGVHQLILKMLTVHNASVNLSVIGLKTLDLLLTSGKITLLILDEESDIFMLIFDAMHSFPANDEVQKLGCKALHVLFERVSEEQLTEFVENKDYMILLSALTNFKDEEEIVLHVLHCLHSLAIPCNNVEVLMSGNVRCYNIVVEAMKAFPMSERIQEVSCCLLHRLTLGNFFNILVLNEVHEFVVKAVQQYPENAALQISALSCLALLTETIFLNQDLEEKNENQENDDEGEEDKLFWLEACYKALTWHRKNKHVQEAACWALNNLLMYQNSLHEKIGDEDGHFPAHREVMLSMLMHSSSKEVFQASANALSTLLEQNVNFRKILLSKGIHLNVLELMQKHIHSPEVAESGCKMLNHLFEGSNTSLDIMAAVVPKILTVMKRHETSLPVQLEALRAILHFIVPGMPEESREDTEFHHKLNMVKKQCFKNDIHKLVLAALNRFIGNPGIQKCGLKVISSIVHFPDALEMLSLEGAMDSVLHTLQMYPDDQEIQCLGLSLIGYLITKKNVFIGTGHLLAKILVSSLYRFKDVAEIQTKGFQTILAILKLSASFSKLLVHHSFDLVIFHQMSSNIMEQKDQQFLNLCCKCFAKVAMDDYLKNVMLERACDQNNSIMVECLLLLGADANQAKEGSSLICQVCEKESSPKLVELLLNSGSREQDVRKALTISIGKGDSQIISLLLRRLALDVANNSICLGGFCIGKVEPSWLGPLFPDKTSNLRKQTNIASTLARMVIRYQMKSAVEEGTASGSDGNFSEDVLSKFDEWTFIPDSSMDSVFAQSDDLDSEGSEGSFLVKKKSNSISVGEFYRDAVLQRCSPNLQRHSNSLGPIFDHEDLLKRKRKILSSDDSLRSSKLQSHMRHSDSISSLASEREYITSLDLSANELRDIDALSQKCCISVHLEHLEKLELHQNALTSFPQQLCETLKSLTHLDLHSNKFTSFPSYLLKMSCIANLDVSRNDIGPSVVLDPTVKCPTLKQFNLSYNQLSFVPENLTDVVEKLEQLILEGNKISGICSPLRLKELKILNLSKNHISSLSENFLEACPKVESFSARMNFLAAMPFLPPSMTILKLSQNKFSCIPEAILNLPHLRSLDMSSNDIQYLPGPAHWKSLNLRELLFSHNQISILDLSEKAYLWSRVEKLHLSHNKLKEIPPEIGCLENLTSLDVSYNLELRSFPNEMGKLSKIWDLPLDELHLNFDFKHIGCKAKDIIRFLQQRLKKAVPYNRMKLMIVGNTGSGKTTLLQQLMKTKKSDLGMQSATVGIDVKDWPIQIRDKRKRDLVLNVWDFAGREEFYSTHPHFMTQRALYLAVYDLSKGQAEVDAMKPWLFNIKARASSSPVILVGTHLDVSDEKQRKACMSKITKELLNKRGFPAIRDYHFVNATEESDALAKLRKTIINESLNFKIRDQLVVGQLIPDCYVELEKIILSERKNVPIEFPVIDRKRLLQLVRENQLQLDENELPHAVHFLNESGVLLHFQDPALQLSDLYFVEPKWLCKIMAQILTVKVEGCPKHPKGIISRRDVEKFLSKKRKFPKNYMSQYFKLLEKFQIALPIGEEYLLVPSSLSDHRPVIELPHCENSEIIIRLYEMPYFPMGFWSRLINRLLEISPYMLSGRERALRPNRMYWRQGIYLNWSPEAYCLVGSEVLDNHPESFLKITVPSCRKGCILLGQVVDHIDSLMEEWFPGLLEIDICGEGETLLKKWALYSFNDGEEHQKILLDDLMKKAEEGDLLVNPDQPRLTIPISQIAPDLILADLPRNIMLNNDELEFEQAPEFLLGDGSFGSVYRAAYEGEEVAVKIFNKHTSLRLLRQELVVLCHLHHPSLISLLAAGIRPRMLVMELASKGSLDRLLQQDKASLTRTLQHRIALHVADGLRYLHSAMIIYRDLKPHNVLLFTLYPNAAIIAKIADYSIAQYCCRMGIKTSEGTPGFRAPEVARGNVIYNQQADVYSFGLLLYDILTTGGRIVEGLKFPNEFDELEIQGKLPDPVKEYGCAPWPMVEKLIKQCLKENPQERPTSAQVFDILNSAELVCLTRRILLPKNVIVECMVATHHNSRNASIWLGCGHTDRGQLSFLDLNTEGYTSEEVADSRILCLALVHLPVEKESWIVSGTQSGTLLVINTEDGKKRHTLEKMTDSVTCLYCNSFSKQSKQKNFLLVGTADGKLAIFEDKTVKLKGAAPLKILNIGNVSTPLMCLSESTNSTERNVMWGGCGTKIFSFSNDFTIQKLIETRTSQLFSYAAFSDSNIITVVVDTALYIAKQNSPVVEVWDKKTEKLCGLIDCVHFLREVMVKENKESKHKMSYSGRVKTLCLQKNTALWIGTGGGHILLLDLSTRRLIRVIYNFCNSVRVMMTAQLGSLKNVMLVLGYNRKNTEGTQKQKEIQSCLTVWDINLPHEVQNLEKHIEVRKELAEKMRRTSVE
T2 sequence (Q5S007 whole entry, the tested form may be a part): as the sequence (Q5S007 whole entry G2019S, the tested form may be a part) above, with S2019G counted along it
Sequence of Calcium/calmodulin-dependent protein kinase type II subunit alpha (Homo sapiens) (Q9UQM7 whole entry): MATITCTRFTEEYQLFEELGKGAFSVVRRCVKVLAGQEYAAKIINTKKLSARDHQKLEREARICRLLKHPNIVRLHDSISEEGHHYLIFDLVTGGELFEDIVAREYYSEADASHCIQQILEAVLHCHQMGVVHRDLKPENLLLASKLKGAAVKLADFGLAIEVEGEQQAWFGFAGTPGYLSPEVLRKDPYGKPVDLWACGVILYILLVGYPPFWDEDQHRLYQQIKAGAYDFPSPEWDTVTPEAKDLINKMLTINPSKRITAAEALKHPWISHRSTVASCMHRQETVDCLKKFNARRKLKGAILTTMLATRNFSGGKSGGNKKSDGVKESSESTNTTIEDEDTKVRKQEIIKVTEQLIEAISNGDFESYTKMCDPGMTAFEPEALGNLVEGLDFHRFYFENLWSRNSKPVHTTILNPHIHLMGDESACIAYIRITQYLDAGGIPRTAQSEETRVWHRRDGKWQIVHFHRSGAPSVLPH
Sequence of Glycogen synthase kinase-3 beta (Homo sapiens) (P49841 whole entry, looked up): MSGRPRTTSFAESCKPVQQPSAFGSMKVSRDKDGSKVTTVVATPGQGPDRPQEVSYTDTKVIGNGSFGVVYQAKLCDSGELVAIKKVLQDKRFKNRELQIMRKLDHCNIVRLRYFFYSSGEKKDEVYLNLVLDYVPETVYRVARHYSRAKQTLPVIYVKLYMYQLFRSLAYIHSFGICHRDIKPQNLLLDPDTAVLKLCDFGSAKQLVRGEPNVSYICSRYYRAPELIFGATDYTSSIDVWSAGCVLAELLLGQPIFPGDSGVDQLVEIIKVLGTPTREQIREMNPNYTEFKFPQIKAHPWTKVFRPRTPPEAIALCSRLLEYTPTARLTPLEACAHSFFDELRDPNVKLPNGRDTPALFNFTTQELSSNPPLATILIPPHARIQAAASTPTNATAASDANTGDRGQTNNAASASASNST
Sequence of Serine/threonine-protein kinase PAK 4 (Homo sapiens) (O96013 whole entry, looked up): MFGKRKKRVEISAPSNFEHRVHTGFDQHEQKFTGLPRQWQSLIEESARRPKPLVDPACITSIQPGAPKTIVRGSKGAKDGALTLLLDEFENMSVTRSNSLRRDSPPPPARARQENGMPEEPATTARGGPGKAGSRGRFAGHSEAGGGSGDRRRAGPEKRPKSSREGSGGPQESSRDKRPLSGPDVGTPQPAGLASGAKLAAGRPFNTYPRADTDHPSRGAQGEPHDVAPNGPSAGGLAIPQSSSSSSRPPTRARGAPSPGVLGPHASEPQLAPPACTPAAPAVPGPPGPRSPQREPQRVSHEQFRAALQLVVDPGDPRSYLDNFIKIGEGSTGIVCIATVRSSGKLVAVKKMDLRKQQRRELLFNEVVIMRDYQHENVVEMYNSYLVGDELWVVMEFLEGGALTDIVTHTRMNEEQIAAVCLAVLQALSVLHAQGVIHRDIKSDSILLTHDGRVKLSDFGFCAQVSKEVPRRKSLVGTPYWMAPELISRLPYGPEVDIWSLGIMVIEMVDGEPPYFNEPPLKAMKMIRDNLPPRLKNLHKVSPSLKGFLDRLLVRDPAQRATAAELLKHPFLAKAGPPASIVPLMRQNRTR
Sequence of Cyclin-dependent kinase 1/cyclin B1 (Homo sapiens) (P06493 whole entry, looked up): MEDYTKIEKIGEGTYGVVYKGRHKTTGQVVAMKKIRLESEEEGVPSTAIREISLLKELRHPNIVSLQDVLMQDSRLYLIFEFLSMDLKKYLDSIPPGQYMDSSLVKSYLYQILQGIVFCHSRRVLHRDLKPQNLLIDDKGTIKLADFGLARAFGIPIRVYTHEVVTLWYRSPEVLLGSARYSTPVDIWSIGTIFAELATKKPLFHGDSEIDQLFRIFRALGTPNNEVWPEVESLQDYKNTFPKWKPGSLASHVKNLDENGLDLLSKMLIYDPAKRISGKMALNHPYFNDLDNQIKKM
Sequence of Cyclin-dependent kinase 1/cyclin B1 (Homo sapiens) (P14635 whole entry, looked up): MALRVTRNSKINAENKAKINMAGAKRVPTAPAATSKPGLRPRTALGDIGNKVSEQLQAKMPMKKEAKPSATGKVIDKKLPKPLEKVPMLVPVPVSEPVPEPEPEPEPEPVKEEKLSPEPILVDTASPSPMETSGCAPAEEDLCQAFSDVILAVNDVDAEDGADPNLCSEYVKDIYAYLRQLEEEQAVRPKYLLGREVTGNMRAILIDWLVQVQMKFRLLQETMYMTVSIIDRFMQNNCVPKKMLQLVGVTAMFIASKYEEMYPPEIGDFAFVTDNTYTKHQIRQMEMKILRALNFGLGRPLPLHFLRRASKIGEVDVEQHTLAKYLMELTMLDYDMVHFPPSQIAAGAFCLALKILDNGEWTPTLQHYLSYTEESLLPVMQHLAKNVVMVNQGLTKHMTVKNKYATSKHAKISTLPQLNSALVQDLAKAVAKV

Consider `C[C@@H](Nc1c(C#N)cnc2cc(-c3ccc(-n4ccoc4=O)cc3)ccc12)C1CC1`, for which the permeability entry in [1] is “impermeable”. In data set [2], the Drug uptake entry is recorded as “Active”. The same compound showed an EC50 in [3] of 731 nM. Further, the IC50 in [4] worked out at 27 nM; in data set [5], 48 nM.
Turning to `CC(C)Nc1c(C#N)cnc2cc(-c3cnn(C)c3)ccc12`, the permeability result in data set [1] is listed as “impermeable”. In addition, in [2], the Drug uptake entry was “Active”. In addition, the inhibition in [6] was -9%; in [7], 15%; in data set [8] it was 12%; in [9], 41%; in [10], 12%; in data set [11] it was 9%. The inhibition in data set [12] came out at 12%; in data set [13] it was 22%; in data set [14], 41%; in data set [15], 30%; in data set [16], 96%; in data set [17], 6%. For the same compound, the inhibition was 5% in data set [18]; 67% in [19]; 12% in data set [20]; 14% in data set [21]; 0% in [22]; 27% in data set [23]. A half-maximal effect in [3] (EC50) was put at 140 nM. Besides, the half-inhibitory concentration (IC50) in data set [4] turned out to be 5 nM; in [5], 7 nM.
For the compound `CC(C)Nc1c(C#N)cnc2cc(-c3ccc(S(C)(=O)=O)cc3)ccc12`, the permeability result in data set [1] is “impermeable”. Also, the Drug uptake result in [2] is given as “Active”. The inhibition in data set [6] is -4%; in data set [7], 29%; in [8], 3%; in data set [9] it was 43%; in data set [10], 33%; in [11], 9%. Besides, the inhibition was 13% in data set [12]; -2% in [13]; 15% in [14]; 33% in [15]; 82% in [16]; 28% in data set [17]. For the same compound, the inhibition is 19% in [18]; 60% in data set [19]; 16% in data set [20]; 12% in data set [21]; 10% in data set [22]; 25% in [23]. A half-maximal response in data set [3] (EC50) required 435 nM. In addition, the IC50 in data set [4] was found to be 28 nM; in [5], 31 nM.
